Series [1] concerns SARS-CoV-2. The series can be described thus: microbe, parasite or virus in culture. The note with it: Severe acute respiratory syndrome coronavirus 2, Vero C1008; Vero E6 cells; reporter SARS-CoV-2 MOI of 0.1; luciferase at 24 h post-infection; 0.5% DMSO; read-out: antiviral EC50. Type of series: cell-based.
Series [2] is classed as physicochemical. How it is done: Saturation solubility of niclosamide was studied in the solvents, to know the highest concentration of niclosamide that can be solubilized, as depicted in table 6.
Heating and stirring improved solubilization of niclosamide in polyethylene glycol. […] In further formulation studies, drug substance concentration >7% w/w was desired, so 65° C. of temperature was used for solubilization of API.

The nature of series [3]: physchem. The note with it: 25 °C, water.
Series [4] deals with human sperm. The series can be described thus: Dose-dependent effect of niclosamide on sperm motility in fresh human semen. Type of series: cell-based. How it is done:
FIG. 1 is a graph depicting the dose dependent effect of niclosamide dissolved in DMSO, on sperm motility. Fresh human semen samples were mixed with the different concentrations of niclosamide in vitro, followed by analysis of sperm motility within 2 minutes. The x-axis depicts the different concentrations of niclosamide mixed with the semen sample. The x-axis, from Left to Right: the gray bar depicts an untreated semen sample, the blue bar depicts a vehicle control, and the eight pink bars depict the increasing concentrations of niclosamide tested. […] The y-axis depicts the percentage (%) inhibition in sperm motility of each semen sample treated with a concentration of niclosamide o normalized to the sperm motility of a control sample. Change in sperm motility relative to control treated sample is shown as mean +/−standard error of the mean (S.E.M.) for the aggregate of individual experiments.
Sperm motility is a functional measurement of the sperm themselves. Sperm may be sampled directly from semen or from washed sperm samples, and assessed for motility either manually or by CASA (Computer Assisted Sperm Analysis) (Chapter 59—Male Reproductive System. Systems Toxicologic Pathology. Dianne M. Creasy, Robert E. Chapin, in Haschek and Rousseaux's Handbook of Toxicologic Pathology (Third Edition), 2013; Amann R P et al. Computer-assisted sperm analysis (CASA): capabilities and potential developments. Theriogenology. 2014 Jan. 1; 81(1):5-17).
Sperm motility (expressed as %) may be evaluated in duplicate within 1 h of semen collection, by counting moving and nonmoving sperm in several microscopic fields. […] In preferred embodiments, only complete spermatozoa (head with tail) are included in such counts. Slow-moving sperm (class B+C) can be easily and accurately counted compared with rapidly moving (class A) sperm. A multi-button tally, preferably a digital one, is used to differentially count such motility (for additional detail, see Chapter 23: Standardized semen analysis and quality control management for multicenter male reproductive toxicology clinical trials, Sikka S. C. et al., in Bioenvironmental Issues Affecting Men's Reproductive and Sexual Health, 2018, the contents of which are incorporated herein by reference in their entirety).
After 2 minutes of incubation with the formulation, the semen samples were collected and analyzed for sperm motility. […] Data were collected within 2 minutes after mixing the formulation in gel form, with fresh semen, so the effects are instantaneous. As for timing, the gel may be applied 15-20 minutes prior to intercourse to allow gelling to fully occur. Furthermore, the gel may not be efficacious after residing in the vagina for longer than 1 hour.

The nature of series [5]: Drug-excipient compatibility study (related substances of binary mixtures). It counts as physicochemical. How it is done: Proposed drug to excipient ratio was selected based on the function of the excipient and maximum concentration to be used. Drug and excipient binary mixtures were prepared by uniform mixing. The blends were packed in clear glass vials and the compatibility was evaluated in closed conditions. In the closed-vial study, the dry mix samples were filled in vials with screw stopper fitting covered with parafilm and stored at 40° C./75% RH, 25° C./60% RH and 2° C.-8° C. storage condition up to 4 weeks. Samples at 40° C./75% RH and 25° C./60% RH were checked for physical description and analyzed for related substances, initially, at 2 weeks and at 4 weeks. Ratio of drug substance to excipients in blend for the compatibility study, are as follows: a) niclosamide:gelling agents/mucoadhesive agents was 1:15; b) niclosamide:solvents/co-solvents was 1:5; c) niclosamide:pH adjusting agents/neutralizing agents was 1:1; and d) niclosamide: preservatives/anti-oxidants was 1:0.5. Summary of physical description and related substances analysis of binary mixtures of API & excipients at initial and 40° C./75% RH-4 weeks condition are presented below in Table 8.
The impurities detected were as follows: Impurity-1 (5-chloro salicylic acid); Impurity-2 (2-chloro-4-nitro aniline); Impurity-3 (N-(2-chloro-4-nitrophenyl)-2-hydroxybenzamide); Impurity-4 (3,5-dichloro-N-(2-chloro-4-nitrophenyl)-2-hydroxybenzamide); and Impurity-5 (3-chloro-N-(2-chloro-4-nitrophenyl)-2-hydroxybenzamide).

The nature of series [6]: Saturation solubility in buffers (shake flask method). The note with it: 0.1 N HCl, 0.01 N HCl, pH 3.0 and 4.0 acid phthalate buffer, pH 4.5 and 5.1 acetate buffer.
[7] abbreviates: 40° C./75% RH, 4 Weeks, closed vial.

Values after ≈ are worked out from the molar mass of the structure shown. Like-named read-outs stand apart in the source and are kept apart here.

Regarding `O=C(Nc1ccc([N+](=O)[O-])cc1Cl)c1cc(Cl)ccc1O` [niclosamide], the Solubility (as a rule, how much of the substance goes into solution per volume) was “Nil” (pH 1.2); “Nil” (pH 2); “Nil” (pH 3); “Nil” (pH 4); “Nil” (pH 4.5); “Nil” (pH 5.1). This molecule also came in with a Solubility in series [3] of 5 µg/mL (≈ 15.3 µM). Also, in series [1], the EC50 (as a rule, the midpoint of the concentration-response curve) came out at 150 nM. Besides, in series [2], the maximum solubility came out at 5 % w/w. In addition, the “Minimum dose to see effect (inhibits sperm motility)” value in series [4] came to 4 mM. Moreover, in series [4], the “Minimum dose to see effect (inhibits sperm motility), Amount (w/w)” value amounted to 0.13%. Moreover, in series [4] (Sperm, 2 min, 10 mM niclosamide, fresh human semen, within 2 minutes, relative to control, read-out: percentage (%) inhibition in sperm motility), the inhibition (in general, the percentage by which the read-out fell short of the control) at 10000 µM was 100%. Besides, in series [4] (semen sample vs control sample, 2 minutes incubation), the “Concentration giving complete inhibition of sperm motility” value is at least 10 mM. Further, the figures for the Imp-3 in series [5] (setting [7]) and in series [5] (Initial) were 0.026% and 0.029%, respectively. In addition, the Imp-4 in series [5] (setting [7]) was found to be 0.012%; in series [5] (Initial) it was 0.009%. The Imp-5 in series [5] (setting [7]) was determined as 0.014%. The results for the “Single Max Unk Imp” value in series [5] (setting [7]) and in series [5] (Initial) were 0.007% and 0.010%, respectively. For the same molecule, the “Total Impurities” value came out at 0.06% in series [5] (setting [7]) and 0.05% in series [5] (Initial). Besides, the “solubility in studied buffers” value in series [6] was “insoluble”.

Values taken from US20230040597A1, “USE OF NICOLSAMIDE FORMULATIONS FOR ANTIVIRAL THERAPY” (priority 2020, published 2023).
